From patent US10473666B2, “Dye compounds” (SFC CO., LTD., priority 2015, dated 2019)

How the values were obtained:
[1] = Absorption spectra, emission spectra, molar extinction coefficients and quantum yields of the dye compounds; assay type: physicochemical; settings: Table 1; solvent DMSO
Method: Absorption spectra (λabs), emission spectra (λem), molar extinction coefficients (ε), and quantum yields of the compounds of Formulae 1-7 were measured and the results are shown in Table 1.
Absorption spectra (λabs), emission spectra (λem), molar extinction coefficients, and quantum yields of the compounds of Formulae 44-53 were measured and the results are shown in Table 4.
The products of the two factors (molar extinction coefficient×fluorescence quantum yield) for the inventive dye compounds were much greater than that for the comparative compound.

[2] = tested on: goat anti-mouse IgG; assay: Absorption and fluorescence emission spectra of goat anti-mouse IgG labeled with the dye
Method: Goat anti-mouse IgG was labeled with Alexa Fluor® 568 (Thermo Fisher Scientific) and the compound of Formula 1 and their absorption spectra and fluorescence emission spectra were recorded.
FIG. 1a is an absorption spectrum of goat anti-mouse IgG labeled with the compound of Formula 1, FIG. 1b is an absorption spectrum of goat anti-mouse IgG labeled with Alexa Fluor® 568, FIG. 1c is a fluorescence emission spectrum of goat anti-mouse IgG labeled with the compound of Formula 1, and FIG. 1d is a fluorescence emission spectrum of goat anti-mouse IgG labeled with Alexa Fluor® 568.
Goat anti-mouse IgG was labeled with Alexa Fluor® 594 (Thermo Fisher Scientific) and the compound of Formula 3 and their absorption spectra and fluorescence emission spectra were recorded.
FIG. 2a is an absorption spectrum of goat anti-mouse IgG labeled with the compound of Formula 3, FIG. 2b is an absorption spectrum of goat anti-mouse IgG labeled with Alexa Fluor® 594, FIG. 2c is a fluorescence emission spectrum of goat anti-mouse IgG labeled with the compound of Formula 3, and FIG. 2d is a fluorescence emission spectrum of goat anti-mouse IgG labeled with Alexa Fluor® 594.

[3] = tested on: IgG from mouse serum (primary); assay: FLISA plate fluorescence (bioactivity) of dye-conjugated secondary antibody on coated primary IgG; assay type: binding; settings: for D/P ratio at which the dye-secondary antibody was conjugated to the primary antibody with the highest efficiency: dye-conjugated goat anti-mouse IgG on IgG from mouse serum; for Fluorescence: dye-conjugated goat anti-mouse IgG
Method: 1. IgG from mouse serum (primary) was dissolved to a concentration of 10 μg/ml in coating buffer.
2. 100 μl of the solution was divided into each well of a FLISA H/B black corning plate.
3. After top sealing, the plate was incubated in the dark at room temperature for 2 h.
4. Each well was washed three times with 300 μl of washing buffer.
5. 300 μl of blocking buffer was placed into each well. After top sealing, the plate was incubated in the dark at room temperature for 1 h.
6. After removal of the blocking buffer, the wells were washed three times with washing buffer.
7. 100 μl of a dye-conjugated secondary antibody (10 μg/ml) was placed into each well. After top sealing, the plate was incubated in the dark at room temperature for 1 h.
8. After removal of the solution, each well was washed three times with 200 μl of washing buffer.
9. 100 μl of PBS was placed into each sample-containing well.
10. Fluorescence was measured with a microplate reader.
The procedure of Experimental Example 4 was repeated except that the compound of Formula 3 was used.
The procedure of Experimental Example 4 was repeated except that the compound of Formula 50 was used.

[4] = Absorption spectra, emission spectra, molar extinction coefficients and quantum yields of the dye compounds; assay type: physicochemical
[5] = Characterization as pH probes: fluorescence intensity versus pH; assay type: physicochemical
Source text: In addition, the absorption and fluorescence wavelengths of the compound of Formula 97 well match currently available laser lines (488 nm, 532 nm, and 550 nm).
That is, the compound of Formula 111 as a pH probe emitted strong fluorescence at pH 2-6 and the compound of Formula 97 as a pH probe emitted strong fluorescence at pH 8-12.

[6] = tested on: mitochondria, Raw 264.7 cells; assay: Selectivity for mitochondria: co-localization with MitoTracker Green FM in Raw 264.7 cells; assay type: cell-based; settings: dye 1 μM
Method: The specific selectivity of the compound of Formula 110 for mitochondria was investigated. To this end, Raw 264.7 cells were co-localized with the compound of Formula 110 and a commercially available mitochondrial marker (MTG, 1 μM MitoTracker Green FM for mitochondria).
OPM images were acquired at 560-600 nm (Formula 110, λex=552 nm) and 470-520 nm (MTG, λex=488 nm) and are shown in FIGS. 4a and 4b, respectively. FIG. 4c is a merged image of FIGS. 4a and 4b. The Pearson's co-localization coefficient (A) was calculated using the LAS AF software. [MTG]=1μM for 30 min incubation,λex=488 nm [Formula 110]=1μM for 30 min incubation,λex=552 nm

[7] = tested on: HeLa A431 cells; assay: Photostability: fluorescence intensity over time in stained HeLa A431 cells; assay type: cell-based; settings: HeLa A431 cells stained with 1.0 μM dye
Method: The fluorescence intensities of three areas A, B, and C of HeLa A431 cells stained with the compound of Formula 110 (1.0 μM) were measured at 2-sec intervals for 3500 sec.
The fluorescence intensities of four areas A, B, C, and D of HeLa A431 cells stained with the compound of Formula 98 (1.0 μM) were measured at 2-sec intervals for 3500 sec.
The fluorescence intensities of two areas A and B of HeLa A431 cells stained with Cy3B (1.0 μM) were measured at intervals of 2 s for 2000 s.

[8] = dye-conjugated secondary antibody, plate fluorescence
[9] = measured at 2-sec intervals for 3500 sec

For CC1(CCCCCC(=O)O)C2=[N+](CCC3Oc4cc(N(CCCS(=O)(=O)O)CCCS(=O)(=O)O)ccc4C=C23)c2ccc(S(=O)(=O)[O-])cc21 (centres unmarked) [Formula 1], the “Q.Y. (quantum yield)” value [1] was 0.91, the λabs [1] was 584 nm and the “aggregation compared with the Alexa Fluor dye” value [2] was “less aggregated than Alexa Fluor® 568”. The “fluorescence emission intensity compared with the Alexa Fluor dye” value [2] was “higher than that of Alexa Fluor® 568”, the “D/P ratio at which the dye-secondary antibody was conjugated to the primary antibody with the highest efficiency” value [3] was roughly 4.8 and the Fluorescence ([3]; D/P ratio 2.202771) was 104.026. For the same compound, the Fluorescence ([3]; D/P ratio 4.888795) was 127.5422, the Fluorescence ([3]; D/P ratio 8.141409) was 95.4 and the Fluorescence ([3]; D/P ratio 11.30465) was 91.8519. For the same compound, the Fluorescence ([3]; D/P ratio 12.45994) was 75.1, the “bioactivity compared with the Alexa Fluor dye” value [3, 8] was “better bioactivity than Alexa Fluor® 568” and the “brightness values compared with the Alexa Fluor dye” value [3, 8] was “much higher than those of Alexa Fluor® 568”. For the same compound, the “ε (molar extinction coefficient)” value ([4]; Table 1, solvent DMSO) was 66,000 M^−1cm^−1 and the λem ([4]; Table 1, solvent DMSO) was 617 nm.
In the case of CC1(C)CCN(CCCCCC(=O)O)c2ccc3c(c21)OC1CC[N+]2=C(C1=C3)C(C)(C)c1ccccc12 (centres unmarked) [Formula 6], the “Q.Y. (quantum yield)” value [1] is reported as 0.72, the λabs [1] is reported as 579 nm and the “ε (molar extinction coefficient)” value ([4]; Table 1, solvent DMSO) is reported as 12,800 M^−1cm^−1. It also gave a λem ([4]; Table 1, solvent DMSO) of 612 nm.
For CC1(C)C2=[N+](CCC3Oc4cc(N5CCN(CCCCCC(=O)O)CC5)ccc4C=C23)c2ccccc21 (centres unmarked) [Formula 111], the “pH at which the pH probe emitted strong fluorescence” value [5] was 2-6 pH, the “fluorescence intensity under acidic conditions” value ([5]; pH 1-6) was “increased” and the “fluorescence intensity under basic conditions” value ([5]; pH 9-12) was “decreased”. The Quantum yield ([4]; Table 6, solvent PBS (pH 7.4)) was 0.53, the “ε (molar extinction coefficient)” value ([4]; Table 6, solvent PBS (pH 7.4)) was 55,000 M^−1cm^−1 and the λabs ([4]; Table 6, solvent PBS (pH 7.4)) was 530 nm. For the same compound, the λem ([4]; Table 6, solvent PBS (pH 7.4)) was 585 nm.
For CC1(C)CCN(CCCCCC(=O)O)c2cc3c(cc21)C=C1C2=[N+](CCC1O3)c1ccccc1C2(C)C (centres unmarked) [Formula 7], the “Q.Y. (quantum yield)” value [1] was 1.00, the λabs [1] was 584 nm and the “ε (molar extinction coefficient)” value ([4]; Table 1, solvent DMSO) was 60,000 M^−1cm^−1. It also gave a λem ([4]; Table 1, solvent DMSO) of 615 nm.
For CC1(CCCCCC(=O)O)C2=[N+](CCC3Oc4c(cc5c6c4CCCN6CCC5)C=C23)c2ccccc21 (centres unmarked) [Formula 2], the “Q.Y. (quantum yield)” value [1] was 0.94, the λabs [1] was 597 nm and the “ε (molar extinction coefficient)” value ([4]; Table 1, solvent DMSO) was 71,500 M^−1cm^−1. For the same compound, the λem ([4]; Table 1, solvent DMSO) was 623 nm.
With CNc1ccc2c(c1)OC1CC[N+]3=C(C1=C2)C(C)(C)c1ccccc13 (centres unmarked) [Formula 110] the “staining selectivity for mitochondria” value [6] was “mitochondria were predominantly stained”, the “degree of overlapping (A), Pearson's co-localization coefficient with Mitotracker Green FM” value ([6]; MTG 1 μM, 30 min incubation, LAS AF software) was 0.73 and the photostability [7] was “good photostability”. The “change of fluorescence intensity over time” value (“change” below) [7, 9] was “no substantial decreases in fluorescence intensity for 1 h”, the Quantum yield ([4]; Table 6, solvent DMSO) was 0.86 and the “ε (molar extinction coefficient)” value ([4]; Table 6, solvent DMSO) was 37,000 M^−1cm^−1. The λabs ([4]; Table 6, solvent DMSO) was 561 nm, the λem ([4]; Table 6, solvent DMSO) was 597 nm and the Quantum yield ([4]; Table 6, solvent EtOH) was 0.80. The “ε (molar extinction coefficient)” value ([4]; Table 6, solvent EtOH) was 50,000 M^−1cm^−1, the λabs ([4]; Table 6, solvent EtOH) was 558 nm and the λem ([4]; Table 6, solvent EtOH) was 584 nm. For the same compound, the Quantum yield ([4]; Table 6, solvent PBS) was 0.78, the “ε (molar extinction coefficient)” value ([4]; Table 6, solvent PBS) was 37,000 M^−1cm^−1 and the λabs ([4]; Table 6, solvent PBS) was 550 nm. For the same compound, the λem ([4]; Table 6, solvent PBS) was 579 nm.
In the case of CC1(C)C2=[N+](CCC3Oc4cc5c(cc4C=C23)C(CS(=O)(=O)O)=CC(C)(C)N5CCCCCC(=O)O)c2ccc(S(=O)(=O)[O-])cc21 (centres unmarked) [Formula 5], the “Q.Y. (quantum yield)” value [1] is reported as 0.56, the λabs [1] is reported as 617 nm and the “ε (molar extinction coefficient)” value ([4]; Table 1, solvent DMSO) is reported as 65,000 M^−1cm^−1. It also gave a λem ([4]; Table 1, solvent DMSO) of 659 nm.
For CCN(CC)c1ccc2c(c1)OC1CC[N+]3=C(C1=C2)C(C)(C)c1ccccc13 (centres unmarked) [Formula 98], the photostability [7] was “good photostability”, the “change” value [7, 9] was “no substantial decreases in fluorescence intensity for 1 h” and the Quantum yield ([4]; Table 6, solvent DMSO) was 0.77. For the same compound, the “ε (molar extinction coefficient)” value ([4]; Table 6, solvent DMSO) was 57,000 M^−1cm^−1, the λabs ([4]; Table 6, solvent DMSO) was 570 nm and the λem ([4]; Table 6, solvent DMSO) was 601 nm. For the same compound, the Quantum yield ([4]; Table 6, solvent EtOH) was 0.78, the “ε (molar extinction coefficient)” value ([4]; Table 6, solvent EtOH) was 64,000 M^−1cm^−1 and the λabs ([4]; Table 6, solvent EtOH) was 570 nm. The λem ([4]; Table 6, solvent EtOH) was 596 nm, the Quantum yield ([4]; Table 6, solvent PBS) was 0.51 and the “ε (molar extinction coefficient)” value ([4]; Table 6, solvent PBS) was 57,000 M^−1cm^−1. The λabs ([4]; Table 6, solvent PBS) was 565 nm and the λem ([4]; Table 6, solvent PBS) was 595 nm.
In the case of CN(CCCCCC(=O)O)c1ccc2c(c1)OC1CC[N+]3=C(C1=C2)C(C)(C)c1cc(S(=O)(=O)CC(S(=O)(=O)[O-])S(=O)(=O)O)ccc13 (centres unmarked) [Formula 4], the “Q.Y. (quantum yield)” value [1] is reported as 0.81, the λabs [1] is reported as 584 nm and the “ε (molar extinction coefficient)” value ([4]; Table 1, solvent DMSO) is reported as 76,000 M^−1cm^−1. For the same compound, the λem ([4]; Table 1, solvent DMSO) was 614 nm.
With CC1(C)C2=C3C=C4C5=[N+](CCC4OC3CCN2c2ccccc21)c1ccccc1C5(C)C (centres unmarked) [Cy3B, reference compound] the photostability [7] was “poor photostability” and the “change” value ([7]; measured at intervals of 2 s for 2000 s) was “greatly reduced for 1500 s”.
For CC1(CCCCCC(=O)O)C2=[N+](CCC3Oc4cc5c(cc4C=C23)C(CS(=O)(=O)O)CC(C)(C)N5CCCS(=O)(=O)O)c2ccc(S(=O)(=O)[O-])cc21 (centres unmarked) [Formula 3], the “Q.Y. (quantum yield)” value [1] was 0.87, the λabs [1] was 595 nm and the “fluorescence emission intensity compared with the Alexa Fluor dye” value [2] was “higher than that of Alexa Fluor® 594”. The “D/P ratio at which the dye-secondary antibody was conjugated to the primary antibody with the highest efficiency” value [3] was roughly 3.4, the Fluorescence ([3]; D/P ratio 2.54) was 64.89 and the Fluorescence ([3]; D/P ratio 3.47) was 83.79. It also gave a Fluorescence ([3]; D/P ratio 4.86) of 78.61, a Fluorescence ([3]; D/P ratio 5.18) of 80.28 and a Fluorescence ([3]; D/P ratio 5.95) of 68.06. The “bioactivity compared with the Alexa Fluor dye” value [3, 8] was “better bioactivity than Alexa Fluor® 594”, the “brightness values compared with the Alexa Fluor dye” value ([3]; when the D/P ratio was ≥5) was “much higher than those of Alexa Fluor® 594” and the “ε (molar extinction coefficient)” value ([4]; Table 1, solvent DMSO) was 64,000 M^−1cm^−1. For the same compound, the λem ([4]; Table 1, solvent DMSO) was 624 nm.
